Source: patent US8658800B2 (priority 2010, dated 2014)
One block for each compound: values may come before it.

Experiments:
[1] = logP by HPLC on reversed-phase columns (C 18), EEC Directive 79/831 Annex V.A8; format: physicochemical; conditions: reversed-phase C18 HPLC column; HPLC, reversed-phase C 18, acidic range pH 2.7, 0.1% aqueous formic acid/acetonitrile; read-out: log P
Description: The logP values reported in the table above and in the Preparation Examples were determined in accordance with EEC Directive 79/831 Annex V.A8 by HPLC (High Performance Liquid Chromatography) on reversed-phase columns (C 18), with the following methods:
The LC-MS determination in the acidic range is carried out at pH 2.7 using the mobile phases 0.1% aqueous formic acid and acetonitrile (contains 0.1% formic acid), linear gradient from 10% acetonitrile to 95% acetonitrile
Calibration was carried out using unbranched alkan-2-ones (having from 3 to 16 carbon atoms) with known logP values (the logP values were determined by the retention times using linear interpolation between two successive alkanones).

[2] = test system: larvae of the mustard beetle (Phaedon cochleariae); assay: Phaedon test (PHAECO spray treatment); format: in vivo; conditions: 168 h, 100 g/ha, sprayed Chinese cabbage discs, after 7 days, read-out: activity (kill of beetle larvae)
Description: Phaedon Test ([…] Spray Treatment) Solvents: 78.0 parts by weight of acetone • • 1.5 parts by weight of dimethylformamide Emulsifier: 0.5 part by weight of alkylaryl polyglycol ether To produce a suitable preparation of active compound, 1 part by weight of active compound is mixed with the stated amount of solvents and emulsifier, and the concentrate is diluted with emulsifier-containing water to the desired concentration. Discs of Chinese cabbage (Brassica pekinensis) are sprayed with an active compound preparation of the desired concentration and, after drying, populated with larvae of the mustard beetle (Phaedon cochleariae).

Boophilus microplus = Boophilus microplus test (BOOPMI injection); format: in vivo; conditions: 10 μg/animal, injection into the abdomen, after 7 days
Description: Boophilus microplus Test (BOOPMI Injection)
(§1) Solvent: dimethyl sulphoxide
To produce a suitable preparation of active compound, 10 mg of active compound are mixed with 0.5 ml of solvent and the concentrate is diluted with solvent to the desired concentration.
The active compound solution is injected into the abdomen (Boophilus microplus), and the animals are transferred into dishes and stored in a climate-controlled room. The activity is assessed by […] of fertile eggs.
After 7 days, the effect in % is determined 100% means that none of the ticks has laid any fertile eggs.

Lucilia cuprina larvae = assay: Lucilia cuprina test (LUCICU); format: in vivo; conditions: 100 ppm, treated horse meat, after 2 days
Description: Lucilia cuprina Test (LUCICU)
as §1
(§2) To produce a suitable preparation of active compound, 10 mg of active compound are mixed with 0.5 ml of dimethyl sulphoxide and the concentrate is diluted with water to the desired concentration.
Vessels containing horse meat treated with the active compound of the desired concentration are populated with about 20 Lucilia cuprina larvae.
After 2 days, the kill in % is determined 100% means that all of the larvae have been killed; 0% means that none of the larvae have been killed.

adult Musca domestica = assay: Musca domestica test (MUSCDO); format: in vivo; conditions: treated sponge, after 2 days
Description: Musca domestica Test (MUSCDO)
as §1, §2
Vessels containing a sponge treated with the active compound preparation of the desired concentration are populated with adult Musca domestica.
After 2 days, the kill in % is determined 100% means that all of the flies have been killed; 0% means that none of the flies have been killed.

[3] = test system: caterpillars of the armyworm (Spodoptera frugiperda); assay: Spodoptera frugiperda test (SPODFR spray treatment); format: in vivo; conditions: foliar, 168 h, 100 g/ha, sprayed maize leaf discs, after 7 days, read-out: activity (kill of caterpillars)
Description: Spodoptera frugiperda Test (SPODFR Spray Treatment)
Solvents: 78.0 parts by weight of acetone
(§3) • 1.5 parts by weight of dimethylformamide Emulsifier: 0.5 part by weight of alkylaryl polyglycol ether
(§4) To produce a suitable preparation of active compound, 1 part by weight of active compound is mixed with the stated amount of solvents and emulsifier, and the concentrate is diluted with emulsifier-containing water to the desired concentration.
Discs of maize leaves (Zea mays) are sprayed with an active compound preparation of the desired concentration and, after drying, populated with caterpillars of the armyworm (Spodoptera frugiperda).
After 7 days, the effect in % is determined. 100% means that all caterpillars have been killed; 0% means that none of the caterpillars have been killed.

[4] = test system: green peach aphid (Myzus persicae); assay: Myzus test (MYZUPE spray treatment); format: in vivo; conditions: 144 h, sprayed Chinese cabbage discs, after 6 days, read-out: activity (kill of aphids)
Description: Myzus Test (MYZUPE Spray Treatment)
Solvents: 78 parts by weight of acetone
as §3, §4
Discs of Chinese cabbage (Brassica pekinensis) infested by all stages of the green peach aphid (Myzus persicae) are sprayed with an active compound preparation of the desired concentration.
After 6 days, the effect in % is determined. 100% means that all of the aphids have been killed; 0% means that none of the aphids have been killed.

chromatographic logP [1]: 4.33
SMILES: Cc1cc(Cl)cc(C(=S)NC(C)(C)C)c1NC(=O)c1cc(Cn2nnc(C(F)(F)F)n2)nn1-c1ncccc1Cl [Compound 6]
pest or weed control at 100 g/ha [2]: 100% | activity (100% = none of the ticks has laid any fertile eggs) (Boophilus microplus): 100% | efficacy (kill) (Lucilia cuprina larvae): 100% | efficacy (kill) (adult Musca domestica; 100 ppm): 90% | pest or weed control at 100 g/ha [3]: 100%

chromatographic logP [1]: 3.42
SMILES: CNC(=S)c1cc(Cl)cc(C)c1NC(=O)c1cc(Cn2nnc(C(F)(F)F)n2)nn1-c1ncccc1Cl [Compound 7]
pest or weed control at 100 g/ha [2]: 100% | activity (100% = none of the ticks has laid any fertile eggs) (Boophilus microplus): 100% | efficacy (kill) (Lucilia cuprina larvae): 100% | pest or weed control at 100 g/ha [4]: 100% | efficacy (kill) (adult Musca domestica; 20 ppm): 90% | pest or weed control at 100 g/ha [3]: 100%
